# Tested on: 947758-054-R-J2-PDC spheroid growth, percent test/control
# Assay: Anticancer human tumor 947758-054-R-J2-PDC patient-derived colon adenocarcinoma cell line growth inhibition [CLK]
# Details: spheroids with HUVEC and MSC; for IC50: curve of first compound; for viability, T/C: stronger effect = lower value
# Summary of the method: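 Multi-cell-type spheroids combined patient-derived tumor cells with HUVEC endothelial cells and human mesenchymal stem cells. Paired agents were dosed in half-log steps down from about clinical Cmax, or from 10 microM where Cmax was unknown.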
# 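Also: spheroids exposed to compounds for one week before readout.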
# 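For viability, T/C in this document: 100% = DMSO vehicle control wells.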
smiles,measurement,setting,value
C=CC(=O)Nc1cc(Nc2nccc(-c3cn(C)c4ccccc34)n2)c(OC)cc1N(C)CCN(C)C + CN1CCN(c2cc(C(=O)Nc3cc4cc(-c5cnn(C)c5)ccc4cn3)ccn2)CC1,IC50,second compound 0.0316 µM,> 300 nM
same,IC50,second compound 0.1 µM,> 300 nM
same,IC50,second compound 0.316 µM,< 0.949 nM
same,IC50,second compound 1 µM,< 0.949 nM
same,IC50,second compound 3.16 µM,< 0.949 nM
same,IC50,second compound 10 µM,< 0.949 nM
same,"viability, T/C","second compound 0.0316 µM, first compound 0.000949 µM",102%
same,"viability, T/C","second compound 0.0316 µM, first compound 0.003 µM",111%
same,"viability, T/C","second compound 0.0316 µM, first compound 0.00949 µM",100%
same,"viability, T/C","second compound 0.0316 µM, first compound 0.03 µM",81.4%
same,"viability, T/C","second compound 0.0316 µM, first compound 0.0949 µM",116%
same,"viability, T/C","second compound 0.0316 µM, first compound 0.3 µM",137%
same,"viability, T/C","second compound 0.1 µM, first compound 0.000949 µM",157%
same,"viability, T/C","second compound 0.1 µM, first compound 0.003 µM",163%
same,"viability, T/C","second compound 0.1 µM, first compound 0.00949 µM",152%
same,"viability, T/C","second compound 0.1 µM, first compound 0.03 µM",179%
same,"viability, T/C","second compound 0.1 µM, first compound 0.0949 µM",120%
same,"viability, T/C","second compound 0.1 µM, first compound 0.3 µM",106%
same,"viability, T/C","second compound 0.316 µM, first compound 0.000949 µM",4.91%
same,"viability, T/C","second compound 0.316 µM, first compound 0.003 µM",4.6%
same,"viability, T/C","second compound 0.316 µM, first compound 0.00949 µM",2.55%
same,"viability, T/C","second compound 0.316 µM, first compound 0.03 µM",3.23%
same,"viability, T/C","second compound 0.316 µM, first compound 0.0949 µM",2.33%
same,"viability, T/C","second compound 0.316 µM, first compound 0.3 µM",3.21%
same,"viability, T/C","second compound 1 µM, first compound 0.000949 µM",0.14%
same,"viability, T/C","second compound 1 µM, first compound 0.003 µM",0.99%
same,"viability, T/C","second compound 1 µM, first compound 0.00949 µM",0.15%
same,"viability, T/C","second compound 1 µM, first compound 0.03 µM",0.13%
same,"viability, T/C","second compound 1 µM, first compound 0.0949 µM",0.11%
same,"viability, T/C","second compound 1 µM, first compound 0.3 µM",0.14%
same,"viability, T/C","second compound 3.16 µM, first compound 0.000949 µM",0.4%
same,"viability, T/C","second compound 3.16 µM, first compound 0.003 µM",1.42%
same,"viability, T/C","second compound 3.16 µM, first compound 0.00949 µM",1.1%
same,"viability, T/C","second compound 3.16 µM, first compound 0.03 µM",0.23%
same,"viability, T/C","second compound 3.16 µM, first compound 0.0949 µM",2.07%
same,"viability, T/C","second compound 3.16 µM, first compound 0.3 µM",1.52%
same,"viability, T/C","second compound 10 µM, first compound 0.000949 µM",0.82%
same,"viability, T/C","second compound 10 µM, first compound 0.003 µM",0.35%
same,"viability, T/C","second compound 10 µM, first compound 0.00949 µM",1%
same,"viability, T/C","second compound 10 µM, first compound 0.03 µM",1.25%
same,"viability, T/C","second compound 10 µM, first compound 0.0949 µM",0.32%
same,"viability, T/C","second compound 10 µM, first compound 0.3 µM",0.26%
Nc1ccccc1NC(=O)c1ccc(CNC(=O)OCc2cccnc2)cc1 + CN1CCN(c2cc(C(=O)Nc3cc4cc(-c5cnn(C)c5)ccc4cn3)ccn2)CC1,IC50,second compound 0.0316 µM,4620 nM
same,IC50,second compound 0.1 µM,2700 nM
same,IC50,second compound 0.316 µM,< 31.6 nM
same,IC50,second compound 1 µM,< 31.6 nM
same,IC50,second compound 3.16 µM,< 31.6 nM
same,IC50,second compound 10 µM,< 31.6 nM
same,"viability, T/C","second compound 0.0316 µM, first compound 0.0316 µM",133%
same,"viability, T/C","second compound 0.0316 µM, first compound 0.1 µM",136%
same,"viability, T/C","second compound 0.0316 µM, first compound 0.316 µM",153%
same,"viability, T/C","second compound 0.0316 µM, first compound 1 µM",166%
same,"viability, T/C","second compound 0.0316 µM, first compound 3.16 µM",70.3%
same,"viability, T/C","second compound 0.0316 µM, first compound 10 µM",8.87%
same,"viability, T/C","second compound 0.1 µM, first compound 0.0316 µM",188%
same,"viability, T/C","second compound 0.1 µM, first compound 0.1 µM",178%
same,"viability, T/C","second compound 0.1 µM, first compound 0.316 µM",190%
same,"viability, T/C","second compound 0.1 µM, first compound 1 µM",129%
same,"viability, T/C","second compound 0.1 µM, first compound 3.16 µM",39.4%
same,"viability, T/C","second compound 0.1 µM, first compound 10 µM",4.71%
same,"viability, T/C","second compound 0.316 µM, first compound 0.0316 µM",2.88%
same,"viability, T/C","second compound 0.316 µM, first compound 0.1 µM",6%
same,"viability, T/C","second compound 0.316 µM, first compound 0.316 µM",2.2%
same,"viability, T/C","second compound 0.316 µM, first compound 1 µM",0.82%
same,"viability, T/C","second compound 0.316 µM, first compound 3.16 µM",1.3%
same,"viability, T/C","second compound 0.316 µM, first compound 10 µM",0.07%
same,"viability, T/C","second compound 1 µM, first compound 0.0316 µM",0.15%
same,"viability, T/C","second compound 1 µM, first compound 0.1 µM",0.18%
same,"viability, T/C","second compound 1 µM, first compound 0.316 µM",0.2%
same,"viability, T/C","second compound 1 µM, first compound 1 µM",0.12%
same,"viability, T/C","second compound 1 µM, first compound 3.16 µM",0.57%
same,"viability, T/C","second compound 1 µM, first compound 10 µM",2.05%
same,"viability, T/C","second compound 3.16 µM, first compound 0.0316 µM",0.21%
same,"viability, T/C","second compound 3.16 µM, first compound 0.1 µM",0.63%
same,"viability, T/C","second compound 3.16 µM, first compound 0.316 µM",0.29%
same,"viability, T/C","second compound 3.16 µM, first compound 1 µM",0.28%
same,"viability, T/C","second compound 3.16 µM, first compound 3.16 µM",0.32%
same,"viability, T/C","second compound 3.16 µM, first compound 10 µM",2.87%
same,"viability, T/C","second compound 10 µM, first compound 0.0316 µM",0.31%
same,"viability, T/C","second compound 10 µM, first compound 0.1 µM",0.32%
same,"viability, T/C","second compound 10 µM, first compound 0.316 µM",1.85%
same,"viability, T/C","second compound 10 µM, first compound 1 µM",0.43%
same,"viability, T/C","second compound 10 µM, first compound 3.16 µM",0.45%
same,"viability, T/C","second compound 10 µM, first compound 10 µM",2.2%

# Reference: PubChem BioAssay AID2060605 (Molecular Pharmacology Branch, DTP, NCI, 2025)
